Reference: publication PMC7226106, “Population Pharmacokinetics/Pharmacodynamics of Dabrafenib Plus Trametinib in Patients with BRAF-Mutated Metastatic Melanoma” (Cancers, 2020)
Where two headings read alike, the source gives them in different places.

How the values were obtained:
[1] = parameters: method as in earlier work; details: preclinical data; cited from earlier work
[2] = Model-estimated systemic exposure (AUC) in BRAF^V600-mutated MM patients treated with CombiDT; details: for AUC: human, plasma, oral
Protocol: (§1) Pharmacokinetic/pharmacodynamic analysis was conducted in BRAF^V600-mutated MM patients concomitantly treated with CombiDT. Regarding safety, the onset of DLT was considered as the clinical endpoint. A DLT was defined as any toxicity leading to dose reduction or temporary or permanent discontinuation of treatment. Regarding survival, the primary end point was progression free survival (PFS), the time from DAB and TRA treatment initiation to documented progression event (either clinical or radiological progression) or death from any cause. The secondary end-point was overall survival (OS), defined as the time from DAB and TRA treatment initiation to death from any cause. Radiographic evidence of progression was defined according to modified Response Evaluation Criteria in Solid Tumor (RECIST) v1.1 [41].
Systemic exposures to DAB, OHD, and TRA (AUCDAB, AUCOHD, and AUCTRA, respectively) were calculated with classic equations, composite DAB and OHD AUC (AUCDAB+OHD) as previously explained and AUCOHD/DAB as the ratio of AUCOHD over AUCDAB. Univariate Fisher and Wilcoxon models were performed to identify which parameters could contribute to the onset of DLT. The following variables were tested: sex, age at treatment initiation, BMI, Eastern Cooperative Oncology Group Performance Status (ECOG PS: grade 0-1 vs ≥2), lactate dehydrogenase (LDH) level (<1.5N vs. ≥1.5N), AUCDAB, AUDOHD, AUCDAB+OHD, and AUCTRA.
Multivariate Cox models according to a stepwise procedure were tested including all variables which were significant at 5% level in the univariate analyses. All the pharmacokinetic/pharmacodynamic analyses were performed using R program v3.6.1 with RStudio v1.1.383 (http://www.r-project.org).

[3] = Population pharmacokinetic model of dabrafenib/hydroxy-dabrafenib (NONMEM) from plasma concentrations; format: in vivo, human (patients); details: for Vd/F: both sexes, human, plasma, oral, 150 mg twice daily, read-out: V2/F, apparent central volume of distribution of DAB
Description: Seventy-three outpatients treated with DAB were enrolled from July 2015 to June 2017 in this observational multicentric study including three hospitals of the Assistance Publique—Hôpitaux de Paris (Cochin, Henri Mondor, and Avicenne). To be eligible, patients needed to meet the following criteria: a minimal age of 18 years, metastatic BRAF^V600-mutated solid tumors, treatment with DAB or CombiDT with at least one available DAB concentration measurement.
DAB, dabrafenib-d9 (internal standard, IS), and TRA were purchased from LGC Standards (Molsheim, France). A custom synthesis was developed by Shanghai Medicilon (Shanghai, China) for OHD. The plasma concentrations were assayed using a validated high-performance liquid chromatography-tandem mass spectrometry (HPLC-MS/MS) (ATSQ Quantum Ultra®mass spectrometer, ThermoFisher, Les Ulis, France). Chromatographic separation was performed on Accucore® C18 (2.1 × 50 mm; 2.6 µm) analytical column (ThermoFisher Scientific, Les Ulis, France) associated with a guard column packed with the same bonded phase. Two hundred microliters (µL) aliquot of plasma (calibration standard, internal quality control or patient sample) was mixed with 20 µL of IS solution. Then 600 µL acetonitrile with 1% (v/v) formic acid was added. Samples were mixed and centrifuged, and the supernatant was evaporated and recovered with 200 µL of mobile phase: water/methanol (70:30%, v/v) with formic acid (0.1% v/v). Ten microliters of this mixture were injected into the HPLC-MS/MS system. The calibration standards ranged from 10 to 2000 ng/mL for DAB and OHD and from 5 to 50 ng/mL for TRA.
Blood samples were collected in heparinized tubes during the treatment course, and the exact sample time was recorded. Plasma was separated by centrifugation (3000 rpm, 5 min), and stored at −20 °C until analysis.
The non-linear mixed effects modeling program NONMEM v7.4.1 [34] with the Perl-Speaks NONMEM (PsN) Toolkit v4.8.0 [35] was used to build DAB/OHD and TRA models. Pirana v2.9.2 was used to assist in model development. […] Molar units were used for DAB/OHD analyses. Plasma samples with concentrations below the lower limit of quantification of the assay, non-reliable time information about blood sampling, or without dose information were excluded from the analysis.
A stepwise strategy was used to identify the base models that best fitted DAB/OHD and TRA pharmacokinetic data. Different structural models such as one or two compartments, with linear absorption with or without lag time, were compared. DAB and OHD were modeled simultaneously testing multi-compartment models for both compounds. We hypothesized that DAB was cleared by complete oxidation to OHD, since it is not eliminated as unchanged molecule in urine and accounts for less than 22% in feces. Moreover, the first-order absorption rate constant (ka) of DAB was fixed to 1.8 h^−1 according to a previously published value to allow an adequate estimate of all pharmacokinetic parameters. Since DAB and TRA are administered orally, the pharmacokinetic parameters represent apparent values. Exponential errors following a log-normal distribution were assumed for the description of IIV of all the pharmacokinetic parameters. Inter-occasion variability (IOV) was tested in both DAB/OHD and TRA models to assess differences in individual parameters across study occasions. Additive, proportional, and mixed error models were compared to depict the residual unexplained variability (RUV) for both drugs and metabolite. The correlation between DAB and OHD data was tested using the L2 item in NONMEM. […]

[4] = test system: BRAF^V600-mutated MM patients; assay: Safety: adverse events and dose-limiting toxicities (DLT) under CombiDT
Protocol: Patients initiated DAB at the recommended daily dose of 150 mg twice daily. In patients treated with CombiDT, TRA was started at 2 mg once daily. Reduced starting doses were allowed at physician discretion based on comorbidities and patients’ general condition. All AE were graded using the National Cancer Institute Common Toxicity Criteria v4.0. DAB treatment was continued until disease progression, unacceptable toxicity, or unfitness to receive it.

[5] = parameters: method as in PMID 24408395; details: fixed in base and final model and bootstrap; cited from earlier work
[6] = test system: BRAF^V600-mutated metastatic melanoma; assay: Survival (PFS, OS) and Cox exposure-survival analysis under CombiDT; format: in vivo, human (patients)
Protocol: as §1
Multivariate Cox models according to a stepwise procedure were tested including all variables which were significant at 5% level in the univariate analyses.

[7] = cited from earlier work
[8] = bootstrap median (n = 500 samples)
[9] = reference models built upon clinical trial data

CC(C)(C)c1nc(-c2cccc(NS(=O)(=O)c3c(F)cccc3F)c2F)c(-c2ccnc(N)n2)s1 [DAB, Dabrafenib]
passage of the intact blood brain barrier [1]: may cross intact blood brain barrier | AUC ([2]; AUC, median (range), patients with DAB-related DLT (n = 12), last AUC before onset of DLT): 9620 ng·h/mL | AUC ([2]; AUC, median (range), patients without DAB-related DLT (n = 40), average AUC over treatment course): 7480 ng·h/mL | AUC ([2]; mean AUCDAB, after DAB dose reduction, n = 8): 5040 ng·h/mL | AUC ([2]; mean AUCDAB, before DAB dose reduction, n = 8): 9010 ng·h/mL | AUC ([2]; median AUCM3 (mean AUC during the first three months of treatment), 30 MM patients of the exposure-survival analysis): 7720 ng·h/mL | decrease in mean AUCDAB after DAB dose reduction ([2]; n = 8): 1.8 fold | difference in pharmacokinetics ([3]; DAB monotherapy vs. combiDT (ΔOFV = −2.9, p > 0.05)): did not differ | IIV CL/F, interindividual variability (coefficient of variation) ([3]; base DAB/OHD model): 21.9% | IIV V2/F, interindividual variability (coefficient of variation) ([3]; base DAB/OHD model): 43.0% | IOV, inter-occasion variability on CL/F (coefficient of variation) ([3]; base DAB/OHD model): 17.2% | RUV of DAB, residual unexplained variability (proportional) ([3]; base DAB/OHD model): 49.2% | Tlag, lag time ([3]; base DAB/OHD model): 0.50 h | CL/F, apparent clearance of DAB ([3]; base DAB/OHD model, n = 73, steady state): 17.7 L/h | CL/F, apparent clearance of DAB [3, 8]: 19.2 L/h | IIV CL/F, interindividual variability (coefficient of variation) [3, 8]: 14.4% | IIV V2/F, interindividual variability (coefficient of variation) [3, 8]: 69.4% | IOV, inter-occasion variability on CL/F (coefficient of variation) [3, 8]: 17.0% | RUV of DAB, residual unexplained variability (proportional) [3, 8]: 48.2% | Tlag, lag time [3, 8]: 0.499 h | Vd/F ([3]; base DAB/OHD model): 39.5 L | Vd/F [3, 8]: 38.3 L | Vd/F ([3]; final DAB/OHD model): 39.1 L | reduction of CL/F ([3]; comparing 20-year-old to 90-year-old patients): 55% | difference in pharmacokinetics ([3]; concomitant proton-pump inhibitor (PPI) intake (ΔOFV = −3.5, p > 0.05)): did not differ | CL/F, apparent clearance of DAB ([3]; final DAB/OHD model): 19.3 L/h | IIV CL/F, interindividual variability (coefficient of variation) ([3]; final DAB/OHD model): 16.0% | IIV V2/F, interindividual variability (coefficient of variation) ([3]; final DAB/OHD model): 50.8% | IOV, inter-occasion variability on CL/F (coefficient of variation) ([3]; final DAB/OHD model): 17.4% | RUV of DAB, residual unexplained variability (proportional) ([3]; final DAB/OHD model): 48.7% | Tlag, lag time ([3]; final DAB/OHD model): 0.499 h | base model variance of clearance explained by covariates (sex, age) ([3]; in vivo): 47% | inter-occasion variability (IOV) on CL/F ([3]; model building): 17% | reduction of CL/F ([3]; women vs. men): 17% | patients in whom the drug dose was reduced ([4]; 52 MM patients): 15% | patients in whom the drug was discontinued permanently ([4]; 52 MM patients): 8% | patients who experienced a drug-related DLT ([4]; 52 MM patients): 23% | median time to onset of drug-related DLT ([4]; human, in vivo): 110 days | ka, first-order absorption rate constant [5]: 1.8 fixed 1/h | patients who discontinued DAB treatment because of cerebral progression ([6]; present cohort): 72% | Risk of Death, HR (CI95%) for AUCM3 ([6]; univariate Cox model, n = 30): 1.02 (0.75–1.39) | Risk of Progression, HR (CI95%) for AUCM3 ([6]; univariate Cox model, n = 30): 1.04 (0.82–1.32) | unchanged molecule in feces [7]: less than 22% | first-order absorption rate constant (ka) ([7]; previously published value, fixed in the model): 1.8 h⁻¹ | CL/F [7, 9]: 17.0 L/h | Q/F [7, 9]: 3.30 L/h | lag time [7, 9]: 0.482 h
